Data reported in ChEMBL document CHEMBL4680251, “Discovery of a 2-pyridinyl urea-containing compound YD57 as a potent inhibitor of apoptosis signal-regulating kinase 1 (ASK1)” (Eur J Med Chem, 2020).
Activity calls are given as the source filed them. No cut-off for these calls is given here.

Columns and labels:
[1] = target: T1, Mitogen-activated protein kinase kinase kinase 5 (Homo sapiens, UniProt Q99683); assay: Inhibition of ASK1 (unknown origin)
T1 sequence (Q99683 whole entry): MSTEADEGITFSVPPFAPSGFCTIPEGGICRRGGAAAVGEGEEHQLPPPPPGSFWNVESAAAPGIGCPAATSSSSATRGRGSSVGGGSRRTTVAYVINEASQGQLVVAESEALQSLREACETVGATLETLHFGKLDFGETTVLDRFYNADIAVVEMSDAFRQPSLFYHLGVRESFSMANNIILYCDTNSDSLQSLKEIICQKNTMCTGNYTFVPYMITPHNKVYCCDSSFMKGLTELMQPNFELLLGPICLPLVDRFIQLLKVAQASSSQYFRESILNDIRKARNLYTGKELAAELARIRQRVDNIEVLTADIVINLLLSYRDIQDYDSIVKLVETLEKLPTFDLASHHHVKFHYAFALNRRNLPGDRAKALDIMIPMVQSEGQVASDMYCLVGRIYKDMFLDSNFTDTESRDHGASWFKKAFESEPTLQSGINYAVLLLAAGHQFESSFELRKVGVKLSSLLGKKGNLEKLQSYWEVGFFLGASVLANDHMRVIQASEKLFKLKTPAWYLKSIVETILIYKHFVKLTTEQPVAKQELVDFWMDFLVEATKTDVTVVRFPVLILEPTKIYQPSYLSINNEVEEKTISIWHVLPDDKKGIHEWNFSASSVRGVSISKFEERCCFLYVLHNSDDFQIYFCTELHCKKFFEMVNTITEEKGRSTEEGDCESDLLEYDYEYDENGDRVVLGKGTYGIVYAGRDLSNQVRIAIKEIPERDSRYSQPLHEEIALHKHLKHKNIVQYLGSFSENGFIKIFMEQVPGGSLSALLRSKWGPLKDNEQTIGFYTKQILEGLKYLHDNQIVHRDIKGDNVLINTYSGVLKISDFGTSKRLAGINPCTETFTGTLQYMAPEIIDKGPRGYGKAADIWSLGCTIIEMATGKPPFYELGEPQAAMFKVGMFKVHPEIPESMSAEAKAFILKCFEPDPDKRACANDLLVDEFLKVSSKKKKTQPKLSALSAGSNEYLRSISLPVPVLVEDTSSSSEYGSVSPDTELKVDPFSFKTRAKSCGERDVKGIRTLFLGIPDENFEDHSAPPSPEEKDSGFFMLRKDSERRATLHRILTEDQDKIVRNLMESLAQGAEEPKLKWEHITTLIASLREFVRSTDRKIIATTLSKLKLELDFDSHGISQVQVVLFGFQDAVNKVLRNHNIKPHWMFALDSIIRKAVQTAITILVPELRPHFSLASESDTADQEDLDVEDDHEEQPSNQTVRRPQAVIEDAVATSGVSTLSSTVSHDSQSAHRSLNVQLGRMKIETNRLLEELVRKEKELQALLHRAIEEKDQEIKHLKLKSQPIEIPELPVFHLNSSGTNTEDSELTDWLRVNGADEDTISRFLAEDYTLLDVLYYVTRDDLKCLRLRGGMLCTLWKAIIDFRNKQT

[2] = target: T2, Mitogen-activated protein kinase kinase kinase 6 (Homo sapiens, UniProt O95382); assay: Inhibition of ASK2 (unknown origin)
T2 sequence (O95382 whole entry): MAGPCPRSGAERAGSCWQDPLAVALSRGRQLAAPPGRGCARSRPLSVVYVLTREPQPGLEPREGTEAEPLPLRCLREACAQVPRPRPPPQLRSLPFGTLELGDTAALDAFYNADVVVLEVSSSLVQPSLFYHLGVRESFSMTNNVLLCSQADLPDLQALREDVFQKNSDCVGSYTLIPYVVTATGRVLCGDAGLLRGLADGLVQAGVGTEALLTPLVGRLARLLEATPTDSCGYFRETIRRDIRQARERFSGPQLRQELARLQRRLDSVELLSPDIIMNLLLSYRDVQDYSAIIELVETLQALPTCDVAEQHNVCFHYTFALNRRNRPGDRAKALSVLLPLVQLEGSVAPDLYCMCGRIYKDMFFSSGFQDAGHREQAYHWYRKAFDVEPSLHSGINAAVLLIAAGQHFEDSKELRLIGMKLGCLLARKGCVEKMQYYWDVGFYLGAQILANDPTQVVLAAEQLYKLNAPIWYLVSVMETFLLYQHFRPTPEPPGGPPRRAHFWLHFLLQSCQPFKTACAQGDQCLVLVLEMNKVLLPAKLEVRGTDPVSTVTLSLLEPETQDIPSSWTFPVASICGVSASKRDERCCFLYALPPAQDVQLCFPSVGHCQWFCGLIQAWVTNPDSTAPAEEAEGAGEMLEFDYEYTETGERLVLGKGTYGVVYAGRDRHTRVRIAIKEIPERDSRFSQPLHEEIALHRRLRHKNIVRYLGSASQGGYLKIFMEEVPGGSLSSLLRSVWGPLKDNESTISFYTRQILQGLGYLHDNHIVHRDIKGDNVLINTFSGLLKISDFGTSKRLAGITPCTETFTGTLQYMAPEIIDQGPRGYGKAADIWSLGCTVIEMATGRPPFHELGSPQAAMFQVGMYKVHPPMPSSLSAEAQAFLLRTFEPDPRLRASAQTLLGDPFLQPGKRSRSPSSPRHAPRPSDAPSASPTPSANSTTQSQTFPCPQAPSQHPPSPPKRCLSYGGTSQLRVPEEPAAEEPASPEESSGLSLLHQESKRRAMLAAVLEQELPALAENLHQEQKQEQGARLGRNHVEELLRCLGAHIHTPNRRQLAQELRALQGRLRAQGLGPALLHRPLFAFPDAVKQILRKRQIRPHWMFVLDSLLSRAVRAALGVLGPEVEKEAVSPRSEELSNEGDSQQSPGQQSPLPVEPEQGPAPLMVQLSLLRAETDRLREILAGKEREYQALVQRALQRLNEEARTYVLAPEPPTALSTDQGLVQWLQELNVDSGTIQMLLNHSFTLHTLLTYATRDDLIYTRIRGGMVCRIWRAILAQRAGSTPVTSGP

[3] = target: T3, Mitogen-activated protein kinase kinase kinase 7 (Homo sapiens, UniProt O43318); assay: Inhibition of TAK1 (unknown origin)
T3 sequence (O43318 whole entry): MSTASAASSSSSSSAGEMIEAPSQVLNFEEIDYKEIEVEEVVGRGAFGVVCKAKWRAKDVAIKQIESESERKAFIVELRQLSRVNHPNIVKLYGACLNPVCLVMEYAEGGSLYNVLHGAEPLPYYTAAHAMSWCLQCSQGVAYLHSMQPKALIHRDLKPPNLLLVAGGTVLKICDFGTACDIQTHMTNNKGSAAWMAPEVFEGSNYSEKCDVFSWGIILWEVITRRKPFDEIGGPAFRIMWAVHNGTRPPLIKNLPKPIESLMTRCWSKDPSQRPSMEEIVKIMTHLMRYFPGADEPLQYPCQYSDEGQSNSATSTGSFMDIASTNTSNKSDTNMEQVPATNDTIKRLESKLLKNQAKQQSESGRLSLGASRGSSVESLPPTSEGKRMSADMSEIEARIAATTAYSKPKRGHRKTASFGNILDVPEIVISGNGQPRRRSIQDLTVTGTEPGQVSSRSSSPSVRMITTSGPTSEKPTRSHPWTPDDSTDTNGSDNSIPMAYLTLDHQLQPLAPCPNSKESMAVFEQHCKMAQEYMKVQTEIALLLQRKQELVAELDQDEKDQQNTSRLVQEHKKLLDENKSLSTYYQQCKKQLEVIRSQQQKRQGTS

HepG2 [4] = assay: Induction of cell cycle arrest in human HepG2 cells assessed as accumulation at G0/G1 phase at 16 uM incubated for 24 hrs by propidium iodide staining based flow cytometry (reference value: 38.34%); assay type: functional
HepG2 [5] = assay: Induction of cell cycle arrest in human HepG2 cells assessed as accumulation at G0/G1 phase at 0.5 to 8 uM incubated for 24 hrs by propidium iodide staining based flow cytometry; assay type: functional; conditions: dose 0.5-8 µM
[6] = Inhibition of human full length recombinant CDK9/cyclin T1 using KTFCGTPEYLAPE as substrate incubated for 40 mins in presence of [gamma-33ATP] by radiometric scintillation counting analysis

| SMILES | IC50 [1] | IC50 [2] | IC50 [3] | other results |
| --- | --- | --- | --- | --- |
| CC(C)n1cnnc1-c1cccc(NC(=O)Nc2cc3ccccn3n2)n1 | 85.3 nM | 4990 nM | > 10000 nM |  |
| Cc1cc(NC(=O)Nc2cccc(-c3nncn3C(C)C)n2)n(C)n1 | 4140 nM |  |  |  |
| C[C@H](CO)n1cnnc1-c1cccc(NC(=O)Nc2ncc3ccccc3n2)n1 | 81 nM | 7170 nM | 5770 nM |  |
| CC(C)n1cnnc1-c1cccc(NC(=O)Nc2cnc3ccccc3n2)n1 | 58 nM | 4860 nM | 6800 nM |  |
| CC(C)n1cnnc1-c1cccc(NC(=O)Nc2cncc3ccccc23)n1 | > 10000 nM |  |  |  |
| CC(C)n1cnnc1-c1cccc(NC(=O)Nc2cnccn2)n1 | 90.3 nM |  |  |  |
| CC(C)n1cnnc1-c1cccc(NC(=O)Nc2cnn3ccccc23)n1 | 3650 nM |  |  |  |
| CC(C)n1cnnc1-c1cccc(NC(=O)NCc2ccccc2)n1 | 7020 nM |  |  |  |
| CC(C)n1cnnc1-c1cccc(NC(=O)Nc2ccnc3ccccc23)n1 | 3260 nM |  |  |  |
| Cc1cc(F)c(C(=O)Nc2cccc(-c3nncn3C(C)C)n2)cc1-n1cnc(C2CC2)c1 |  |  |  | Activity (HepG2 [4]): Active; Activity (HepG2 [5]): inactive |
| CC(C)n1cnnc1-c1cccc(NC(=O)Nc2ncnc3ccccc23)n1 | 71 nM | 1480 nM | 421 nM |  |
| CC(C)n1cnnc1-c1cccc(NC(=O)Nc2cccnc2)n1 | 1210 nM |  |  |  |
| CC(C)n1cnnc1-c1cccc(NC(=O)Nc2cnn(C)c2)n1 | 1860 nM |  |  |  |
| CC(C)n1cnnc1-c1cccc(NC(=O)Nc2ccccc2)n1 | 2840 nM |  |  |  |
| CC(C)n1cnnc1-c1cccc(NC(=O)Nc2cnc3ccccn23)n1 | > 10000 nM |  |  |  |
| CC(C)n1cnnc1-c1cccc(NC(=O)Nc2ccn[nH]2)n1 | 66.7 nM |  |  |  |
| CC(C)n1cnnc1-c1cccc(NC(=O)Nc2ccc3ccccc3n2)n1 | 69.1 nM | 2340 nM | 4560 nM |  |
| CC(C)n1cnnc1-c1cccc(NC(=O)Nc2ccc(-c3cnn(C)c3)cc2)n1 | 245 nM |  |  |  |
| CC(C)n1cnnc1-c1cccc(NC(=O)N(C)c2ccc3ccccc3n2)n1 | 319 nM |  |  |  |
| CC(C)n1cnnc1-c1cccc(NC(=O)Nc2ccc(-c3ccn(C)n3)cn2)n1 | 64.2 nM | 2780 nM | 2220 nM |  |
| CC(C)n1cnnc1-c1cccc(NC(=O)Nc2ncc3[nH]cnc3n2)n1 | 32.6 nM | 742 nM | 1210 nM |  |
| CC(C)n1cnnc1-c1cccc(NC(=O)Oc2ccccc2)n1 | > 10000 nM |  |  |  |

| SMILES | IC50 [1] | IC50 [2] | IC50 [3] | other results |
| --- | --- | --- | --- | --- |
| CC(C)n1cnnc1-c1cccc(NC(=O)Nc2ccc(-c3cnn(C)c3)cn2)n1 | 64.2 nM |  |  |  |
| CC(C)c1cc(NC(=O)Nc2cccc(-c3nncn3C(C)C)n2)[nH]n1 | 393 nM |  |  |  |
| CC(C)n1cnnc1-c1cccc(NC(=O)Nc2ccncc2)n1 | 337 nM |  |  |  |
| CC(C)n1cnnc1-c1cccc(NC(=O)Nc2cc3ccccc3cn2)n1 | 50.6 nM | 1590 nM | 1360 nM |  |
| CC(C)n1cnnc1-c1cccc(N(C)C(=O)N(C)c2cc3ccccn3n2)n1 | 6640 nM |  |  |  |
| C[C@H](CO)n1cnnc1-c1cccc(NC(=O)Nc2nccc3ccccc23)n1 | 37.9 nM | 264 nM | 63.7 nM |  |
| C[C@H](CO)n1cnnc1-c1cccc(NC(=O)Nc2ccc3ccccc3n2)n1 | 47.4 nM | 2860 nM | 1880 nM |  |
| CC(C)n1cnnc1-c1cccc(NC(=O)OCc2ccccc2)n1 | 1520 nM |  |  |  |
| CC(C)OC(=O)Nc1cccc(-c2nncn2C(C)C)n1 | 473 nM |  |  |  |
| CC(C)n1cnnc1-c1cccc(NC(=O)Nc2nccc3ccccc23)n1 | 48.5 nM | 201 nM | 85.2 nM |  |
| CC(C)n1cnnc1-c1cccc(NC(=O)Nc2ncc3ccccc3n2)n1 | 65.7 nM | 2910 nM | 4220 nM |  |
| CC(C)n1cnnc1-c1cccc(NC(=O)Nc2ccccn2)n1 | 43.4 nM | 1090 nM | 734 nM |  |
| CN[C@@H]1C[C@H]2O[C@@](C)([C@@H]1OC)n1c3ccccc3c3c4c(c5c6ccccc6n2c5c31)C(=O)NC4 [STAUROSPORINE] |  |  |  | IC50 [6]: 60.1 nM |
| CCc1cc(NC(=O)Nc2cccc(-c3nncn3C(C)C)n2)[nH]n1 | 153 nM |  |  |  |
| C[C@H](CO)n1cnnc1-c1cccc(NC(=O)Nc2cnc3ccccc3n2)n1 | 114 nM | > 10000 nM | > 10000 nM |  |
| CC(C)n1cnnc1-c1cccc(NC(=O)Nc2cccc(-c3cnn(C)c3)c2)n1 | 2120 nM |  |  |  |
| Cc1cc(NC(=O)Nc2cccc(-c3nncn3C(C)C)n2)[nH]n1 | 142 nM |  |  |  |
| Cc1cc(NC(=O)Nc2cccc(-c3nncn3C(C)C)n2)nn1C | 143 nM |  |  |  |
| CC(C)n1cnnc1-c1cccc(NC(=O)Nc2cc(C3CC3)nn2C)n1 | > 10000 nM |  |  |  |
| CC(C)n1cnnc1-c1cccc(NC(=O)Nc2nc3ccccc3[nH]2)n1 | 111 nM |  |  |  |
| CC(C)n1cnnc1-c1cccc(NC(=O)Nc2cc(C3CC3)n[nH]2)n1 | 124 nM |  |  |  |
| CC(C)n1cnnc1-c1cccc(NC(=O)Nc2nn(C)c3ccccc23)n1 | 259 nM |  |  |  |
